{"source": "patent US8071616B2", "about": "“Pyridine, quinoline, and isoquinoline N-oxides as kinase inhibitors” (Bayer Healthcare LLC, priority 2002, dated 2011)", "data": [{"smiles": "CNC(=O)c1cc(Oc2ccc(NC(=O)Nc3ccc(Cl)c(C(F)(F)F)c3)cc2)cc[n+]1[O-]", "note": "[Experimental Synthesis 1, N-[4-chloro-3-(trifluoromethyl)phenyl]-N′-{4-[2-(N-methylcarbamoyl)-1-oxo-(4-pyridyloxy)]phenyl}urea]", "values": [{"measurement": "melting point", "value": "232 to 234", "unit": "°C"}]}]}
